Legend:
G9a [1] = experiment: In vitro methylation of ERα protein fragments by G9a; type: biochemical, human; details: 2 μg G9a, 2 μg substrate, 3H-S-adenosylmethionine, pH 8.0, 30 °C, 4 h; autoradiography
Excerpt: Complementary DNA encoding full-length human ERα, G9a, PHF20 and NCOA2 genes were cloned into pENTR3C and subsequently cloned into destination vectors using the Gateway technique (Invitrogen). The destination vectors used in this study include p3Flag and pCAG-Flag (for Flag-tag expression), pCAG-Myc (for Myc-tag expression) and pCAG (for no-tag expression). pERE-Luc Firefly luciferase and pRl-TK Renilla luciferase were used for the reporter assays. For in vitro enzymatic assays, G9a, ERα, ERα fragments and mutants were cloned into pGEX-6P1 (GE Healthcare) to express and purify the proteins as GST-tagged proteins. Point mutations were generated using site-directed mutagenesis (Stratagene). shRNA constructs were purchased from Sigma. The G9a-targeting shRNA sequences used in this study were 5′-[…]-3′, 5′-[…]-3′ and 5′-[…]-3′ and the PHF20-targeting shRNA sequences were 5′-[…]-3′ and 5′-[…]-3′. Peptides were synthesized at the W.M. Keck Facility at Yale University or at CPC-Scientific. Polyclonal anti-dimethylated ERαK235 rabbit sera (CPC Scientific, 1:500) were affinity-purified with an ERαK235me2 peptide and depleted against the corresponding unmethylated peptide. Anti-G9a antibodies were purchased from MBL (D141-3, 1:1,000) and Sigma (G6919, 1:2,000); anti-PHF20 (3934S, 1:1,000) antibody from Cell Signaling; anti-ERα (Sc-503, 1:1,000) and anti-GST (Sc-459, 1:1,000) antibodies from Santa Cruz; anti-FLAG (F-1804, 1:5,000) and anti-tubulin (T8328, 1:5,000) antibodies from Sigma; anti-H4K16ac (07–329, 1:1,000) antibody from Millipore; anti-total H3 (ab1791, 1:5,000) and anti-H3K9me2 (ab1220, 1:1,000) antibodies from Abcam; and streptavidin horseradish peroxidase from Thermo Scientific. 17β-estradiol and the G9a inhibitor BIX-01294 were purchased from Sigma.
The pGEX constructs encoding human G9a, ERα and ERα fragments including AF1 (aa 1–190), DBD (aa 175–250), hinge (aa 251–310), DBD+hinge (aa 175–310), LBD (aa 305–596) and the second Tudor domain of PHF20 (aa 58–148) were expressed in E. coli Rosetta (DE3) pLysS cells. After induction with IPTG (0.5 mM) for 16–18 h at 18 °C, cells were collected by centrifugation at 5,000g, lysed by sonication and purified using Glutathione Sepharose 4B beads (GE Healthcare). […]
Recombinant G9a (2 μg) was incubated with recombinant ERα fragments proteins (2 μg) in methylation assay buffer (50 mM Tris-HCl, pH 8.0, 10% glycerol, 20 mM KCl, 5 mM MgCl2, 1 mM DTT, 1 mM PMSF and 0.1 mM unlabelled or ^3H-labelled S-adenosylmethionine (GE Healthcare)) at 30 °C for 4 h. Reactions were stopped by adding SDS–PAGE sample buffer, and the methylation status was determined by autoradiography or western blotting analysis. […]

G9a [2] = experiment: In vitro methylation of ERα peptides by G9a, mass spectrometry; type: biochemical, human; details: 1 μg peptide, pH 8.0, 30 °C, 4 h
PHF20 Tudor = experiment: 1H,15N HSQC NMR titration of PHF20 Tudor; type: binding, human; details: 0.2 mM 15N-labelled PHF20 Tudor, 25 mM Tris-HCl pH 7.5, 150 mM NaCl, 298 K, 600 MHz
Procedure: The pGEX constructs encoding human G9a, ERα and ERα fragments including AF1 (aa 1–190), DBD (aa 175–250), hinge (aa 251–310), DBD+hinge (aa 175–310), LBD (aa 305–596) and the second Tudor domain of PHF20 (aa 58–148) were expressed in E. coli Rosetta (DE3) pLysS cells. After induction with IPTG (0.5 mM) for 16–18 h at 18 °C, cells were collected by centrifugation at 5,000g, lysed by sonication and purified using Glutathione Sepharose 4B beads (GE Healthcare). For the NMR titration assays, PHF20 Tudor was expressed in the ^15NH4Cl-supplemented (Sigma) minimal media, and the GST tag was cleaved with PreScission protease, and the cleaved protein was concentrated using Millipore concentrators (Millipore).
The ^1H,^15N HSQC spectra of 0.2 mM uniformly ^15N-labelled PHF20 Tudor (in 25 mM Tris-HCl, pH 7.5 buffer, 150 mM NaCl, 5 mM dithiothreitol and ∼8% D2O) were collected at 298 K on a Varian INOVA 600 MHz spectrometer. Binding was monitored by titrating unmodified ERα and ERαK235me2 peptides (aa 228–239) against the PHF20 Tudor domain. NMR data were processed and analysed with NMRPipe and NMRDraw as previously described. NMR assignments for PHF20 Tudor were taken from the Biological Magnetic Resonance Data Bank (BMRB 17673)[31].

Molecule	methylation by G9a (G9a [1])	other results
hinge region: recombinant ERα hinge fragment (aa 251–310) (MKGGIRKDRRGGRMLKHKRQRDDGEGRGEVGSAGDMRAANLWPSPLMIKRSKKNSLALSL; UniProt P03372 251-310, looked up, fragment)	methylated both the DBD and the hinge region	
peptide containing K303: ERα peptide spanning amino acids 294–313, G9a substrate (SPLMIKRSKKNSLALSLTAD; UniProt P03372 294-313, looked up, fragment)		increase in mass on G9a methylation (G9a [2]): 14 Da
ERα peptide containing K235: ERα peptide spanning amino acids 227–244, G9a substrate (CTIDKNRRKSCQACRLRK; UniProt P03372 227-244, looked up, fragment)		increase in mass on G9a methylation (G9a [2]): 28 Da
unmethylated ERα (aa 228–239) peptide: unmodified ERα peptide (aa 228–239) (TIDKNRRKSCQA)		chemical shift changes of PHF20 Tudor (PHF20 Tudor): no resonance perturbations were observed
DBD and hinge fragment: recombinant ERα fragment DBD+hinge (aa 175–310) (protein, UniProt P03372 175-310, looked up, fragment) AMESAKETRYCAVCNDYASGYHYGVWSCEGCKAFFKRSIQGHNDYMCPATNQCTIDKNRRKSCQACRLRKCYEVGMMKGGIRKDRRGGRMLKHKRQRDDGEGRGEVGSAGDMRAANLWPSPLMIKRSKKNSLALSL	specifically methylated	
AF-1: recombinant ERα N-terminal activation function domain (aa 1–190) (protein, UniProt P03372 1-190, looked up, fragment) MTMTLHTKASGMALLHQIQGNELEPLNRPQLKIPLERPLGEVYLDSSKPAVYNYPEGAAYEFNAAAAANAQVYGQTGLPYGPGSEAAAFGSNGLGGFPPLNSVSPSPLMLLHPPPQLSPFLQPHGQQVPYYLENEPSGYTVREAGPPAFYRPNSDNRRQGGRERLASTNDKGSMAMESAKETRYCAVCND	not the AF-1 and LBD fragments	
DBD: recombinant ERα DNA-binding domain (aa 175–250) (protein, UniProt P03372 175-250, looked up, fragment) AMESAKETRYCAVCNDYASGYHYGVWSCEGCKAFFKRSIQGHNDYMCPATNQCTIDKNRRKSCQACRLRKCYEVGM	methylated both the DBD and the hinge region	

— paper PMC4792926, “G9a-mediated methylation of ERα links the PHF20/MOF histone acetyltransferase complex to hormonal gene expression” (Nature Communications, 2016)
